Literature values as cited in patent publication US8828946B2, “Composition comprising interleukin-1 receptor antagonist and corticosteroid” (Orthogen AG, priority 2009, dated 2014).

Legend:
impingement le shoulder = conditions: Case IV; previous injections (patient history)
[1] = system: partial rotator cuff rupture and subacromial constriction with complete shoulder stiffness le; conditions: Case IX; numerous injections into the left shoulder (patient history)
low facet arthrosis = conditions: Case VII; in-patient injections into the low facets (patient history)
[2] = system: medial knee osteoarthritis ri degree IV and retropatellar; conditions: Case V; injections in the past (patient history)
[3] = system: moderate knee osteoarthritis ab degree II-III; conditions: Case III; injections into the knee in the past (patient history)
[4] = system: moderate rhizarthrosis ri; conditions: Case II; injections in the past (patient history)

Compound	outcome of previous treatment (impingement le shoulder)	outcome of previous treatment [1]	outcome of previous treatment (low facet arthrosis)	outcome of previous treatment [2]	outcome of previous treatment [3]	outcome of previous treatment [4]	effect in the treatment of osteoarthritis and degenerative spinal diseases (osteoarthritis; Anakinra alone)	effect in the treatment of osteoarthritis (osteoarthritis; alone, compared to a placebo treatment)
C[C@]12CCC(=O)C=C1CC[C@@H]1[C@@H]2C(=O)C[C@@]2(C)[C@H]1CC[C@]2(O)C(=O)CO [cortisone]	without success	without success	without success	without clinical success	unsuccessful	without success	–	–
Anakinra	–	–	–	–	–	–	does not show any effect	did not show any effects
hyaluronic acid	–	–	–	without clinical success	unsuccessful	–	–	–
